Experimental data reported in patent US20230158057A1, “COMPOSITIONS AND METHODS FOR THE TREATMENT OF PAIN” (Duke University, priority 2020, published 2023).

How the values were obtained:
[1] = test system: female C57BL/6 mice with intrafemoral E0771 breast carcinoma; experiment: E0771 breast cancer-induced bone cancer pain model; format: in vivo, mouse; conditions: for bone destruction scored from X-ray images: E0771-bearing femora; for body weight / mechanical allodynia, cold allodynia and spontaneous pain: E0771 model
Protocol: Bone cancer pain model. The murine cell lines LLC1, LL/2-Luc2 or E0771 were lightly digested using 0.05% trypsin, followed by centrifugation to remove poorly digested cell clusters. Cells were then resuspended in PBS at a concentration of 1×10^8 cells/ml. The inoculation was performed as previously described (Wang, K. et al. “PD-1 blockade inhibits osteoclast formation and murine bone cancer pain.” The Journal of clinical investigation, (2020); Wang, Z. et al. “Anti-PD-1 treatment impairs opioid antinociception in rodents and nonhuman primates.” Sci Transl Med 12 (2020)). Briefly, mice were anesthetized with 4% isoflurane and the left leg was shaved and the skin disinfected with 10% povidone-iodine and 75% ethanol. A superficial incision (0.5-1 cm) was made near the knee joint, exposing the patellar ligament. A new 25-gauge needle was inserted at the site of the intercondylar notch of the left femur into the femoral cavity, which was then replaced with a 10 μL microinjection syringe containing a 2 μL suspension of tumor cells (2×10^5) followed by 2 μL absorbable gelatin sponge solution to seal the injection site. The syringe contents were slowly injected into the femoral cavity over a 2-minute interval. To prevent further leakage of tumor cells outside of the bone cavity, the outer injection site was sealed with silicone adhesive (Kwik-Sil, World Precision Instruments, US). Animals with surgery related movement dysfunction or with outside bone tumor injection were excluded from the study.
Behavior tests. All the behavioral tests were conducted in a blinded manner and performed during between the hours of 9:00-16:00. Animals were habituated in a light and humidity controlled testing environment for at least 2 days prior to baseline testing. For Von Frey testing, mice were confined to individual 5×5 cm boxes placed on an elevated wire grid. A blinded experimenter stimulated their hindpaws using a series of von Frey filaments with logarithmically increasing stiffness (0.02-2.56 g, Stoelting). Each filament was applied perpendicularly to the central plantar surface. The 50% paw withdrawal threshold was determined using Dixon's up-down method. In addition, we also measured paw withdrawal frequency to repeated stimulation (10 times, with ˜1-2 minutes between each stimulation) using a subthreshold 0.16 g von Frey filament, which is a more sensitive method to detect mechanical allodynia. To measure cold allodynia, mice were similarly isolated to individual boxes on an elevated mesh floor, and a drop (˜20-30 μl) of acetone was applied to the plantar hindpaw. […] To measure locomotor function, we performed open field testing in which mice were placed in the center of a 45×45 cm chamber and locomotor activity was recorded by an overhead webcam connected to a laptop computer, and animals' movements were automatically tracked for 30 minutes using ANY-Maze. The total distance traveled and mean speed during the 30-minute period were analyzed.
In vivo X-ray radiography. Osteolytic bone destruction was continuously evaluated by radiography using the MultiFocus by Faxitron system (Faxitron Bioptics LLC, Tucson, Ariz.). Radiographs of tumor-bearing femora were rated for bone destruction on a 0-5 score scale based on previous study: 0 for normal bone at baseline without tumor inoculation; 1 for one to three radiolucent lesions indicative of bone destruction compared to baseline; 2 for increased number of lesions (three to six lesions) and loss of medullary bone; 3 for loss of medullary bone and erosion of cortical bone; 4 for full-thickness unicortical bone loss; 5 for full-thickness bicortical bone loss and displaced skeletal fracture. All radiographic image quantifications were completed by an experimenter who was blinded to the experimental conditions.
STING agonist treatment protects against breast cancer induced bone pain and bone destruction. […]

[2] = test system: LLC lung tumor nodules; experiment: Lung metastases after intrafemoral LLC inoculation; format: in vivo, mouse; conditions: d17, 20 mg/kg i.p., vs vehicle or ZA
Description: Visual and immunohistochemical analysis of lung metastases. Mice were deeply anesthetized with isoflurane and perfused intracardially with PBS, followed by 4% PFA. After the perfusion, lungs were removed from mice and post-fixed in the same fixative overnight. The samples were then dehydrated with a 30% sucrose solution, embedded in O.C.T. (Tissue Tek), and cryosectioned to produce 8 μm thick sections. For Hematoxylin and Eosin (H & E) staining, lung sections were rehydrated and stained with 0.1% Hematoxylin and 0.5% Eosin in sequence. After dehydration and clearance with HistoClear (Electron

[3] = test system: RAW 264.7 cells; experiment: In vitro osteoclastogenesis, RANKL-treated RAW 264.7 cells, TRAP staining; format: cell-based, mouse; conditions: RANKL 35 ng/ml, 6 days, escalating dose
Protocol: In vitro induction of osteoclastogenesis and TRAP staining. For in vitro drug treatment, the RAW 264.7 cells were incubated with 35 ng/ml RANKL for six days. Isolated bone marrow cells were cultured overnight in α-MEM media containing 10% fetal bovine serum and 1% antibiotic-antimycotic solution. The suspended cells were collected and incubated with 20 ng/ml MCSF for 3 days to obtain bone marrow-derived macrophage (BMDM). The attached cells were further activated by 35 ng/ml RANKL and 20 ng/ml MCSF. Drug treatment was performed in tandem with RANKL. Culture medium and co-cultured reagents were changed every 3 days. After 6 or 7 days of incubation, the cells were fixed by 4% PFA and stained with warm TRAP staining solution (TRAP kit, Sigma-Aldrich, SLBW4002) for 10-30 min at 37° C.

[4] = test system: CTX-I; experiment: Serum CTX-I ELISA; format: in vivo, mouse; conditions: d17
Protocol: (§1) ELISA. Mouse high-sensitivity IFN-α ELISA kit (42115-1) and IFN-β ELISA kit (42410-1) were purchased from PBL Assay Science. Mouse CTX-I ELISA kit (AC-06F1) and mouse PINP ELISA kit (AC-33F1) were purchased from Immunodiagnostic Systems. ELISA was performed using culture medium, serum, and bone marrow lysates. Serum was obtained from whole blood that was collected from a submandibular vein via facial vein puncture, coagulated for 30 minutes at room temperature, followed by centrifugation (2,000 ×g for 10 min, 4° C.) and collection of the supernatant (serum). Bone marrow was homogenized in a lysis buffer containing protease inhibitors at 4° C. for 30 minutes. ELISA was conducted in accordance with the manufacturer's instructions. A standard curve was performed for each experiment.

[5] = test system: PINP; experiment: Serum PINP ELISA; format: in vivo, mouse; conditions: d17
Protocol: as §1

SMILES	bone destruction scored from X-ray images [1]	body weight [1]	mechanical allodynia, cold allodynia and spontaneous pain [1]	lung tumor nodules [2]	osteoclast differentiation [3]	serum CTX-I levels [4]	serum PINP levels [5]
Nc1ncnc2c1ncn2[C@@H]1O[C@@H]2COP(=O)([S-])O[C@@H]3[C@H](O)[C@@H](COP([O-])(=S)O[C@H]2[C@H]1O)O[C@H]3n1cnc2c(N)ncnc21.[Na+].[Na+] (stereo partly drawn) [ADU-S100, (2′-5′)-[P(R)]-5′-O-[(R)-hydroxymercaptophosphinyl]-P-thioadenylyl-adenosine cyclic dinucleotide]	could also attenuate bone destruction	had no effect on body weight	could markedly reduce mechanical allodynia, cold allodynia and spontaneous pain	fewer lung tumor nodules	dose dependently inhibited osteoclast differentiation	–	–
Cc1ccc2c(=O)c3cccc(CC(=O)O)c3oc2c1C [DMXAA, 2-(5,6-dimethyl-9-oxo-9H-xanthen-4-yl)acetic acid]	could also attenuate bone destruction	had no effect on body weight	could markedly reduce mechanical allodynia, cold allodynia and spontaneous pain	–	dose dependently inhibited osteoclast differentiation	could effectively reduce CTX-I levels on d17	had no effect on serum PINP levels
